Assay results as given in PubChem BioAssay AID1195 (EPA DSSTox, 2008).

System: human maximum recommended daily dose, FDA database
Test: DSSTox (FDAMDD) FDA Maximum (Recommended) Daily Dose Database
Settings: stronger effect = lower value
Summary of the method: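 MRDD values come from clinical trials with daily oral dosing, usually for 3–12 months, for the average adult, in mg/day converted to mg/kg-bw/day assuming 60 kg. Antineoplastic mg/m2 doses are divided by 37. Activity score maps log10(1/MRDD mmol) onto 1–100.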

[1] = TherapeuticCategory: bronchodilator
[2] = TherapeuticCategory: mineralcorticoid
[3] = TherapeuticCategory: antihypertensive
[4] = TherapeuticCategory: antineoplastic
[5] = TherapeuticCategory: antihistaminic
[6] = TherapeuticCategory: glucocorticoid
[7] = TherapeuticCategory: pharmaceutic aid
[8] = TherapeuticCategory: antibacterial
[9] = TherapeuticCategory: CNS stimulant

SMILES: CC(CN(C)C)C(C)(O)Cc1ccc(Cl)cc1 (configuration not stated)
- maximum recommended daily dose (mmol/kg-bw/day) (TherapeuticCategory: antitussive): 0.0156

SMILES: Cc1ccc(-c2cc(C(F)(F)F)nn2-c2ccc(S(N)(=O)=O)cc2)cc1
- maximum recommended daily dose (mmol/kg-bw/day) (TherapeuticCategory: anti inflammatory, antiarthritic): 0.0175

SMILES: CCNC(C)Cc1cccc(C(F)(F)F)c1 (configuration not stated)
- maximum recommended daily dose (mmol/kg-bw/day) (TherapeuticCategory: anorexic): 0.00865

SMILES: Cn1c(=O)c2c(ncn2CC(O)CO)n(C)c1=O (configuration not stated)
- maximum recommended daily dose (mmol/kg-bw/day) [1]: 0.236

SMILES: CC(=O)OCC(=O)[C@H]1CC[C@H]2[C@@H]3CCC4=CC(=O)CC[C@]4(C)[C@H]3CC[C@]12C
- maximum recommended daily dose (mmol/kg-bw/day) [2]: 0.00448

SMILES: CCOC(=O)[C@H](CCc1ccccc1)N[C@@H](C)C(=O)N1CCC[C@H]1C(=O)O
- maximum recommended daily dose (mmol/kg-bw/day) [3]: 0.00177

SMILES: NC(=O)OCC(O)COc1ccc(Cl)cc1 (configuration not stated)
- maximum recommended daily dose (mmol/kg-bw/day) (TherapeuticCategory: topical antifungal): 0.163

SMILES: C[C@H]1O[C@@H](n2cc(F)c(=O)[nH]c2=O)[C@H](O)[C@@H]1O
- maximum recommended daily dose (mmol/kg-bw/day) [4]: 0.0812

SMILES: COc1ccc2c(c1OC)CN1CCc3cc4c(cc3C1C2)OCO4 (configuration not stated)
- maximum recommended daily dose (mmol/kg-bw/day) (TherapeuticCategory: Ca channel blocker): 0.0981

SMILES: CCC1(CC)C(=O)NCC(C)C1=O (configuration not stated)
- maximum recommended daily dose (mmol/kg-bw/day) (TherapeuticCategory: sedative, hypnotic): 0.0364

SMILES: CC(CN1c2ccccc2Sc2ccccc21)N(C)C (configuration not stated)
- maximum recommended daily dose (mmol/kg-bw/day) [5]: 0.00587

SMILES: NCCCC(N)(C(=O)O)C(F)F (configuration not stated)
- maximum recommended daily dose (mmol/kg-bw/day) (TherapeuticCategory: antineoplastic, antineumocystis, antiprotozoal): 2.2

SMILES: CCN1C(=O)NC(c2ccccc2)C1=O (configuration not stated)
- maximum recommended daily dose (mmol/kg-bw/day) (TherapeuticCategory: anticonvulsant): 0.245

SMILES: C[C@H]1C[C@@H]2[C@H]([C@@H](O)C[C@@]3(C)[C@H]2CC[C@]3(O)C(=O)CO)[C@@]2(C)C=CC(=O)C=C12
- maximum recommended daily dose (mmol/kg-bw/day) [6]: 0.0111

SMILES: CN(C)CCOC(c1ccc(Cl)cc1)c1ccccn1 (configuration not stated)
- maximum recommended daily dose (mmol/kg-bw/day) [5]: 0.00138

SMILES: CC(N)Cc1ccccc1 (configuration not stated)
- maximum recommended daily dose (mmol/kg-bw/day) (TherapeuticCategory: CNS stimulant, anorexic): 0.0074

SMILES: CC(C)(N)Cc1ccc(Cl)cc1
- maximum recommended daily dose (mmol/kg-bw/day) (TherapeuticCategory: anorexic): 0.00588

SMILES: C[C@]12CCC(=O)C=C1CC[C@@H]1[C@@H]2C(=O)C[C@@]2(C)[C@H]1CC[C@]2(O)C(=O)CO
- maximum recommended daily dose (mmol/kg-bw/day) [6]: 0.0139

SMILES: O=C(O)CN(CCN(CC(=O)O)CC(=O)O)CC(=O)O
- maximum recommended daily dose (mmol/kg-bw/day) [7]: 0.24

SMILES: O=C(O)[C@H]1/C(=C/CO)O[C@@H]2CC(=O)N21
- maximum recommended daily dose (mmol/kg-bw/day) [8]: 0.0314

SMILES: O=C(O)COc1ccc(C(=O)c2cccs2)c(Cl)c1Cl
- maximum recommended daily dose (mmol/kg-bw/day) (TherapeuticCategory: diuretic, uricosuric, antihypertensive): 0.0252

SMILES: CCCN(CCC)C(=O)C(CCC(=O)O)NC(=O)c1ccccc1 (configuration not stated)
- maximum recommended daily dose (mmol/kg-bw/day) (TherapeuticCategory: anticholinergic): 0.0798

SMILES: CCOc1nc2cccc(C(=O)O)c2n1Cc1ccc(-c2ccccc2-c2nn[nH]n2)cc1
- maximum recommended daily dose (mmol/kg-bw/day) [3]: 0.000606

SMILES: Nc1ncnc2c1ncn2[C@@H]1O[C@H](COP(=O)(O)OP(=O)(O)OP(=O)(O)O)[C@@H](O)[C@H]1O
- maximum recommended daily dose (mmol/kg-bw/day) (TherapeuticCategory: coenzyme): 0.000394

SMILES: OC(c1ccccc1)(c1ccccc1)C1CCCCN1 (configuration not stated)
- maximum recommended daily dose (mmol/kg-bw/day) [9]: 0.000374

SMILES: COc1ncnc(NS(=O)(=O)c2ccc(N)cc2)c1OC
- maximum recommended daily dose (mmol/kg-bw/day) [8]: 0.0806

SMILES: CC1(C)[C@H](C(=O)O)N2C(=O)C[C@H]2S1(=O)=O
- maximum recommended daily dose (mmol/kg-bw/day) (TherapeuticCategory: combination to form antibacterial): 0.286

SMILES: CC(=O)OCC(=O)[C@@]1(O)[C@@H](C)C[C@H]2[C@@H]3CCC4=CC(=O)C=C[C@]4(C)[C@@]3(F)[C@@H](O)C[C@@]21C
- maximum recommended daily dose (mmol/kg-bw/day) [6]: 0.000345

SMILES: CC(=O)[C@]1(O)Cc2c(O)c3c(c(O)c2[C@@H](O[C@H]2C[C@H](N)[C@H](O)[C@H](C)O2)C1)C(=O)c1ccccc1C3=O
- maximum recommended daily dose (mmol/kg-bw/day) (TherapeuticCategory: antibacterial, antineoplastic): 0.00543

SMILES: CS(=O)(=O)c1ccc(C2=C(c3ccccc3)C(=O)OC2)cc1
- maximum recommended daily dose (mmol/kg-bw/day) (TherapeuticCategory: analgesic, anti inflammatory): 0.00265

SMILES: Oc1ccc2c3c1O[C@H]1[C@@H](O)CC[C@@]4(O)[C@@H](C2)N(CC2CCC2)CC[C@]314
- maximum recommended daily dose (mmol/kg-bw/day) (TherapeuticCategory: narcotic analgesic): 0.0028

SMILES: C/C=C\C1=C(C(=O)O)N2C(=O)[C@@H](NC(=O)[C@H](N)c3ccc(O)cc3)[C@H]2SC1
- maximum recommended daily dose (mmol/kg-bw/day) [8]: 0.0429

SMILES: CCCOC(=O)c1ccc(O)cc1
- maximum recommended daily dose (mmol/kg-bw/day) [7]: 0.0555

SMILES: NC[C@@H]1O[C@H](O[C@H]2[C@@H](O)[C@H](O[C@@H]3[C@@H](O)[C@H](N)C[C@H](N)[C@H]3O[C@H]3O[C@H](CO)[C@@H](O)C[C@H]3N)O[C@@H]2CO)[C@H](N)[C@@H](O)[C@@H]1O[C@H]1O[C@H](CO)[C@@H](O)[C@H](O)[C@@H]1O
- maximum recommended daily dose (mmol/kg-bw/day) [8]: 0.0219

SMILES: NC(CSCC(=O)O)C(=O)O (configuration not stated)
- maximum recommended daily dose (mmol/kg-bw/day) (TherapeuticCategory: mucolytic, expectorant): 0.209

SMILES: CN(C)CCCN1c2ccccc2Sc2ccc(Cl)cc21
- maximum recommended daily dose (mmol/kg-bw/day) (TherapeuticCategory: antiemetic, antipsychotic): 0.0524

SMILES: NC1=NC(=O)C(c2ccccc2)O1 (configuration not stated)
- maximum recommended daily dose (mmol/kg-bw/day) [9]: 0.0107

SMILES: CCOC(=O)C1=C(C)NC(C)=C(C(=O)OC)C1c1cccc([N+](=O)[O-])c1 (configuration not stated)
- maximum recommended daily dose (mmol/kg-bw/day) [3]: 0.000924

SMILES: CN(C)CCCC1(c2ccc(F)cc2)OCc2cc(C#N)ccc21 (configuration not stated)
- maximum recommended daily dose (mmol/kg-bw/day) (TherapeuticCategory: antidepressant): 0.00308

SMILES: Cc1ccc(S(=O)(=O)NC(=O)NN2CCCCCC2)cc1
- maximum recommended daily dose (mmol/kg-bw/day) (TherapeuticCategory: antidiabetic): 0.0536

SMILES: CC1=C(CC(=O)O)c2cc(F)ccc2/C1=C/c1ccc(S(C)=O)cc1 (configuration not stated)
- maximum recommended daily dose (mmol/kg-bw/day) (TherapeuticCategory: anti inflammatory): 0.0187

SMILES: CC1(O)CCC(C(C)(C)O)CC1 (configuration not stated)
- maximum recommended daily dose (mmol/kg-bw/day) (TherapeuticCategory: cis form hydrate as expectorant): 0.116

SMILES: CS(=O)(=O)c1ccc([C@@H](O)[C@@H](COC(=O)CN)NC(=O)C(Cl)Cl)cc1
- maximum recommended daily dose (mmol/kg-bw/day) [8]: 0.111

SMILES: NS(=O)(=O)c1cc2c(cc1C(F)(F)F)NCNS2(=O)=O
- maximum recommended daily dose (mmol/kg-bw/day) (TherapeuticCategory: antihypertensive, diuretic): 0.0101

SMILES: C[C@@H](O)[C@H]1C(=O)N2C(C(=O)O)=C(SCCN=CN)C[C@H]12
- maximum recommended daily dose (mmol/kg-bw/day) [8]: 0.223

SMILES: C[C@]12CCC(=O)C=C1CC[C@H]1[C@@H]3CC[C@](O)(C(=O)CO)[C@@]3(C)C[C@H](O)[C@@]12F
- maximum recommended daily dose (mmol/kg-bw/day) [2]: 4.39e-06

SMILES: COC1[C@@H](O[C@@H]2O[C@H](C)[C@@H](O[C@H]3C[C@@](C)(O)[C@H](OC(=O)CC(C)C)[C@H](C)O3)[C@H](N(C)C)[C@H]2O)[C@@H](CC=O)C[C@@H](C)[C@@H](O)/C=C/C=C/C[C@@H](C)OC(=O)C[C@H]1OC(C)=O (some centres not stated)
- maximum recommended daily dose (mmol/kg-bw/day) [8]: 0.0604

SMILES: C[C@]12CC[C@@H]3c4ccc(O)cc4CC[C@H]3[C@@H]1CC[C@@H]2OC(=O)CCC1CCCC1
- maximum recommended daily dose (mmol/kg-bw/day) (TherapeuticCategory: estrogen): 0.00126

SMILES: CCn1cc(C(=O)O)c(=O)c2ccc(C)nc21
- maximum recommended daily dose (mmol/kg-bw/day) [8]: 0.287

SMILES: NC(=O)c1cnccn1
- maximum recommended daily dose (mmol/kg-bw/day) [8]: 0.244

SMILES: CN1CCN(CC(=O)N2c3ccccc3C(=O)Nc3cccnc32)CC1
- maximum recommended daily dose (mmol/kg-bw/day) (TherapeuticCategory: antiulcerative): 0.00711

SMILES: NC(Cc1ccccc1)C(=O)O (configuration not stated)
- maximum recommended daily dose (mmol/kg-bw/day) [8]: 0.605

SMILES: CCN1/C(=C/C=C/C=C/c2sc3ccccc3[n+]2CC)Sc2ccccc21
- maximum recommended daily dose (mmol/kg-bw/day) (TherapeuticCategory: anthelmintic): 0.00642

SMILES: CC(C)CCON=O
- maximum recommended daily dose (mmol/kg-bw/day) (TherapeuticCategory: none): 0.0427

SMILES: CC(C)NCC(O)c1ccc(O)c(O)c1 (configuration not stated)
- maximum recommended daily dose (mmol/kg-bw/day) [1]: 0.000791

SMILES: Nc1ccc(N=Nc2ccccc2)c(N)n1
- maximum recommended daily dose (mmol/kg-bw/day) (TherapeuticCategory: analgesic): 0.0313

SMILES: O=c1[nH]c(=S)[nH]cc1I
- maximum recommended daily dose (mmol/kg-bw/day) (TherapeuticCategory: thyroid inhibitor): 0.0197

SMILES: CCCOC(=O)Cn1cc(I)c(=O)c(I)c1
- maximum recommended daily dose (mmol/kg-bw/day) (TherapeuticCategory: diagnostic aid): 0.224

SMILES: COc1cc2c3cc1Oc1cc(ccc1O)C[C@@H]1c4c(cc(OC)c(O)c4Oc4ccc(cc4)C[C@@H]3N(C)CC2)CC[N+]1(C)C
- maximum recommended daily dose (mmol/kg-bw/day) (TherapeuticCategory: skeletal muscle relaxant, diagnostic aid): 0.000979

SMILES: CO[C@H](C(=O)[C@@H](O)[C@@H](C)O)C1Cc2cc3cc(O[C@H]4C[C@@H](O[C@H]5C[C@@H](O)[C@H](O)[C@@H](C)O5)[C@@H](O)[C@@H](C)O4)c(C)c(O)c3c(O)c2C(=O)[C@H]1O[C@H]1C[C@@H](O[C@H]2C[C@@H](O[C@H]3C[C@](C)(O)[C@H](O)[C@@H](C)O3)[C@H](O)[C@@H](C)O2)[C@H](O)[C@@H](C)O1 (some centres not stated)
- maximum recommended daily dose (mmol/kg-bw/day) [4]: 2.76e-05

SMILES: CC(=O)O[C@H]1C[C@@H]2CC[C@@H]3[C@H](CC[C@@]4(C)[C@H]3C[C@H]([N+]3(C)CCCCC3)[C@@H]4OC(C)=O)[C@@]2(C)C[C@@H]1[N+]1(C)CCCCC1
- maximum recommended daily dose (mmol/kg-bw/day) (TherapeuticCategory: skeletal muscle relaxant): 0.000136

SMILES: CC(=O)Oc1cc(C(C)C)c(OCCN(C)C)cc1C
- maximum recommended daily dose (mmol/kg-bw/day) (TherapeuticCategory: vasodilator): 0.0191
